Counter-ions that a name gives are not always drawn. Like-named read-outs stand apart in the source and are kept apart here.

Consider nine compounds from PMC12399242 (Acta Pharmaceutica Sinica. B, 2025).

Data set [1] concerns HIV-1 (IIIB). The note with it: earlier compounds of Fig. 1 / introduction, cited from earlier work; for EC50: WT HIV-1.
Data set [2] relates to MT-4 cells. The note with it: cited from earlier work.
The conditions of data set [3]: human liver microsomes; cited from earlier work. Background: Liver microsomes are vesicles of endoplasmic reticulum, rich in cytochrome P450 enzymes.
In a further data set the target is T1, CYP2D6 (Homo sapiens, UniProt P10635).
T1 construct: An incubation system of human liver microsomes (20 μL, 1.5 mg/mL); from tissue; host or cells: human liver microsomes
T1 sequence (P10635 whole entry): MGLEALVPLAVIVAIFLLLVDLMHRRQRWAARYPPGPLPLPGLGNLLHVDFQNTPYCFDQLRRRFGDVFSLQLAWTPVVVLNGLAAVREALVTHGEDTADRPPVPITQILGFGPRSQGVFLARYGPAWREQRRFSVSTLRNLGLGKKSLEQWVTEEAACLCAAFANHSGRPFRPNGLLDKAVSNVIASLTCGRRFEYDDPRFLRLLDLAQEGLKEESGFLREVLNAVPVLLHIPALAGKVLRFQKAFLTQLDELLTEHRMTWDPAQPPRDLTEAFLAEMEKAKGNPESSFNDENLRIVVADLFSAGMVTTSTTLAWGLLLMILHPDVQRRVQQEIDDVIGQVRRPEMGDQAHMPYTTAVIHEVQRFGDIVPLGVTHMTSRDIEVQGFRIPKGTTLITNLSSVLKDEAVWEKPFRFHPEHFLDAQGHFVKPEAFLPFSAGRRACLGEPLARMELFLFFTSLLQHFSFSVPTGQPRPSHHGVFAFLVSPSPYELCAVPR
The data set can be described thus: CYP enzyme inhibition assay, CYP2D6. Type of data set: in vitro ADME. The note with it: IC50 CYP2D6, human liver microsomes. How it is done: An incubation system of human liver microsomes (20 μL, 1.5 mg/mL), 20 μL probe substrates, and 50 μL test compound in Tris (0.1 mol/L) was pre-incubated at 37 °C for 10 min, and then initiated by adding NADPH (10 μL, 10 mmol/L). The system was incubated for another 15 min and subsequently terminated by 100 μL MeCN containing internal standard (propranolol, nadolol). Finally, the sample was centrifugated to obtain the supernatant for LC‒MS/MS analysis.

The test system of data set [4] is HIV-1 (IIIB). The data set can be described thus: microbe, parasite or virus in culture. Type of data set: cell-based. The note with it: for EC50: mean ± SD, n ≥ 3; for SI (IIIB): selectivity index, ratio CC50/EC50. The source says: (§1) Inspired by our previous research on heteroaromatic-biphenyl-DAPYs[15], the 4-cyanophenyl group on the biphenyl moiety was replaced with a privileged 4-pyridyl group for further evaluation.

A further data set is described as follows: in vitro. The note with it: human, CC50.
Text: as §1

A further data set deals with HIV-1 L100I. Nature of the data set: Antiviral activity against HIV-1 mutant L100I in MT-4 cells. Type of data set: cell-based. The note with it: Human immunodeficiency virus 1, MT4, read-out: EC50 L100I.
The next data set deals with HIV-1 K103N. The data set can be described thus: Antiviral activity against HIV-1 mutant K103N in MT-4 cells. The class given is cell-based. The note with it: Human immunodeficiency virus 1, MT4, read-out: EC50 K103N.
Another data set relates to HIV-1 Y181C. Nature of the data set: Antiviral activity against HIV-1 mutant Y181C in MT-4 cells. The class given is cell-based. The note with it: Human immunodeficiency virus 1, MT4, read-out: EC50 Y181C.
The subject of a further data set is HIV-1 E138K. The data set can be described thus: Antiviral activity against HIV-1 mutant E138K in MT-4 cells. The class given is cell-based. The note with it: Human immunodeficiency virus 1, MT4, read-out: EC50 E138K.
The test system of data set [5] is HIV-1 F227L + V106A. Nature of the data set: microbe, parasite or virus in culture. The note with it: Human immunodeficiency virus 1, MT4, read-out: EC50 F227L + V106A. Type of data set: cell-based.
Data set [6] deals with HIV-1 K103N + Y181C (RES056). The data set can be described thus: Antiviral activity against HIV-1 double mutant K103N + Y181C (RES056) in MT-4 cells. Type of data set: cell-based. The note with it: Human immunodeficiency virus 1, MT4, read-out: EC50 K103N + Y181C.
For data set [7] the following is noted: comparison values; cited from earlier work.
In the next data set the target is CYP3A4-M (Homo sapiens, UniProt P08684). The note with it: read-out: IC50 CYP3A4-M; cited from earlier work.
Sequence of CYP3A4-M (P08684 whole entry): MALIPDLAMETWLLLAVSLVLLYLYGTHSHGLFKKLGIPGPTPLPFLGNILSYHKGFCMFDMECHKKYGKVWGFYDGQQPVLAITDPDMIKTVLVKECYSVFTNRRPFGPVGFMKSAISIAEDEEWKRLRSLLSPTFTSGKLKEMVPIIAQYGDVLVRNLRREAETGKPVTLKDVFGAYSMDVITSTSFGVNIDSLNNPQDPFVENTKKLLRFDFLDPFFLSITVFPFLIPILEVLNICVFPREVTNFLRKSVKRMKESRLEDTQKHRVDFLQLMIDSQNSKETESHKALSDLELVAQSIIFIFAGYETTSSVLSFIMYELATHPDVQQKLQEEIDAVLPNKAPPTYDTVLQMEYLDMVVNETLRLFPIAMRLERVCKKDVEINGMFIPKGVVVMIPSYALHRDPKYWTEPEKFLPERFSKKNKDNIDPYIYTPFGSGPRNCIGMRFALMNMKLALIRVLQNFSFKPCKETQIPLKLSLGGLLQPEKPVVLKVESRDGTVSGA
The subject of data set [8] is MT-4 cells. The data set can be described thus: in vitro. The note with it: human.
Text: as §1

Data set [9] concerns HIV-1 Y188L. Nature of the data set: Antiviral activity against HIV-1 mutant Y188L in MT-4 cells. The class given is cell-based. The note with it: Human immunodeficiency virus 1, MT4, read-out: EC50 Y188L.
The target in a further data set is WT HIV-1 RT (Human immunodeficiency virus type 1 group M subtype B, UniProt P03366). The data set can be described thus: Inhibition of WT HIV-1 RT polymerase activity.
Data set [10] has as its system HIV-1 Y188L. The note with it: cited from earlier work.
In data set [11] the test system is HIV-1 F227L + V106A. The note with it: cited from earlier work.
Data set [12] has as its system HIV-1 K103N + Y181C (RES056). The note with it: cited from earlier work.
Setting [13] is: Human immunodeficiency virus 1, IIIB, MT4, WT HIV-1, protection of MT-4 cells against HIV-induced cytopathogenicity.
[14] abbreviates: WT HIV-1, protection of MT-4 cells against HIV-induced cytopathogenicity.
[15] abbreviates: earlier compounds of Fig. 1 / introduction.

Method for WT HIV-1 RT: The anti-HIV-1 activity of A1–A24 and B1–B22 at the cellular or enzyme level were evaluated following our previously reported method[15].

As for `Cc1cc(/C=C/C#N)cc(C)c1Nc1ccnc(Nc2ccc(C#N)cc2)n1` [RPV, rilpivirine], the EC50 – broadly, the concentration that produces a half-maximal response – in the data set on HIV-1 (IIIB) [1] is 1 nM. The CC50 with MT-4 cells [2] (introduction) was around 5000 nM. Moreover, in [3], the “CLint(liver)” value is on record as 97.6 mL/min/kg, the “CLint(mic)” value is 108.4 µL/min/mg and the t1/2 is recorded as 12.8 min.
Consider `COc1ccc2c(c1)[C@]13CCCC[C@@H]1[C@H](C2)N(C)CC3` [Dextromethorphan, reference compound], for which 224 nM corresponded to half-maximal inhibition against CYP2D6 (IC50).
In the case of `Cc1cc(C#N)cc(C)c1Oc1nc(Nc2ccc(C#N)cc2)nc(N)c1Br` [ETR, etravirine, reference compound], the EC50 with HIV-1 (IIIB) [4] (setting [13]) came to 3.2 ± 0.7 nM; with HIV-1 L100I it was 4.4 ± 1.6 nM; in the data set on HIV-1 K103N, 2.8 ± 0.7 nM; with HIV-1 Y181C it was 13 ± 2.8 nM; in the data set on HIV-1 E138K it was 7.6 ± 2.3 nM; with HIV-1 F227L + V106A [5], 12 ± 9.4 nM. Moreover, in [6], the EC50 was 44 ± 23 nM. Further, the CC50 in “in vitro” is above 4600 nM; with MT-4 cells [2] (introduction), around 5000 nM. In addition, the “CLint(liver)” value in [3] is 19.0 mL/min/kg. For the same compound, in data set [3], the “CLint(mic)” value was 21.1 µL/min/mg. Moreover, in data set [3], the t1/2 is listed as 65.5 min. In data set [7], the “F (oral bioavailability)” value is recorded as “undetectable”. Besides, the IC50 (usually the midpoint of a concentration-inhibition curve) at CYP3A4-M is 41300 nM.
As to `COc1cc(-c2ccncc2)ccc1Oc1nc(Nc2ccc(C#N)cc2)ncc1F` [A16, 4-((5-Fluoro-4-(2-methoxy-4-(pyridin-4-yl)phenoxy)pyrimidin-2-yl)amino)benzonitrile], the EC50 in the data set on HIV-1 (IIIB) [4] (setting [13]) is at most 5.3 nM; in the data set with HIV-1 (IIIB) [4] (setting [14]), 3.1 ± 2.2 nM; in the data set with HIV-1 L100I it was 39 ± 9.7 nM; in the data set with HIV-1 K103N, 12 ± 3.9 nM; in the data set with HIV-1 Y181C, 104 ± 17 nM; in the data set on HIV-1 E138K, 13 ± 3.4 nM. Moreover, the values for the EC50 (with HIV-1 Y188L [9]; in the data set on HIV-1 F227L + V106A [5]; in [6]) were 1520 ± 556 nM, 1230 ± 556 nM and above 48400 nM, respectively. Moreover, the “SI (IIIB)” value with HIV-1 (IIIB) [4] is given as >15,094. For the same compound, the CC50 is above 45000 nM in “in vitro” and above 48000 nM with MT-4 cells [8]. At WT HIV-1 RT, this compound had an IC50 of 34 ± 2.4 nM.
Take `N#Cc1ccc(Nc2nccc(Nc3c(F)cc(-c4ccc(C#N)cc4)cc3F)n2)cc1` [compound 4]: in the data set with HIV-1 (IIIB) [1], the EC50 was 1.3 nM and the SI was > 238,095. In addition, the CC50 in the data set with MT-4 cells [2] (setting [15]) is above 294000 nM.
For `Cc1cnc(Nc2ccc(C#N)cc2)nc1Nc1c(F)cc(-c2ccc(C#N)cc2)cc1F` [compound 6, reference compound], the EC50 was 1.4 ± 0.3 nM in the data set on HIV-1 (IIIB) [4] (setting [13]); 16 ± 5.3 nM in the data set with HIV-1 L100I; 5.4 ± 1.8 nM in the data set with HIV-1 K103N; 11 ± 1.9 nM in the data set with HIV-1 Y181C; 8.3 ± 1.5 nM in the data set with HIV-1 E138K; above 2000 nM in the data set with HIV-1 Y188L [9]. Further, the EC50 with HIV-1 F227L + V106A [5] is above 2000 nM; in data set [6] it was above 2000 nM; in the data set on HIV-1 (IIIB) [1], 1.4 nM; in the data set with HIV-1 Y188L [10] it was above 2000 nM; in the data set with HIV-1 F227L + V106A [11], above 2000 nM; in data set [12], above 2000 nM. In the data set on HIV-1 (IIIB) [4], the “SI (IIIB)” value is >208,333. Moreover, the CC50 in “in vitro” and with MT-4 cells [2] (setting [15]) was above 285000 nM throughout. In addition, in the data set with HIV-1 (IIIB) [1], the SI was > 208,333.
In the case of `Cc1cc(/C=C/C#N)cc(C)c1Nc1ccnc(Nc2ccc(C#N)cc2)n1` [RPV · HCl, rilpivirine HCl], the “F (oral bioavailability)” value in data set [7] is 32%.
Take `CN(c1ccnc(Nc2ccc(C#N)cc2)n1)c1c(F)cc(-c2ccc(C#N)cc2)cc1F` [compound 5]: in the data set on HIV-1 (IIIB) [1], the EC50 is 6.2 nM and the SI is reported as 24,067. In addition, in the data set on MT-4 cells [2] (setting [15]), the CC50 is 148000 nM.
For `COc1cc(-c2ccc(C#N)cc2)ccc1Oc1nc(Nc2ccc(C#N)cc2)ncc1F` [A4, 4′-((2-((4-Cyanophenyl)amino)-5-fluoropyrimidin-4-yl)oxy)-3′-methoxy-[1,1′-biphenyl]-4-carbonitrile], the EC50 is at most 5.3 nM with HIV-1 (IIIB) [4] (setting [13]); 3 ± 1.1 nM in the data set on HIV-1 (IIIB) [4] (setting [14]); 41 ± 25 nM in the data set on HIV-1 L100I; 9.4 ± 2.7 nM in the data set on HIV-1 K103N; 48 ± 14 nM in the data set with HIV-1 Y181C; 7.8 ± 2.3 nM in the data set with HIV-1 E138K. Also, the EC50 was 1370 ± 206 nM with HIV-1 Y188L [9], at least 1600 nM in the data set with HIV-1 F227L + V106A [5] and above 45700 nM in data set [6]. Further, in the data set with HIV-1 (IIIB) [4], the “SI (IIIB)” value is reported as >16,000. The CC50 in the data set “in vitro” was above 45000 nM; in the data set with MT-4 cells [8] it was above 46000 nM. The compound also displayed an IC50 at WT HIV-1 RT of 46 ± 4.6 nM.
